Data on 15 compounds can be found in US20220030850A1, “CRYOPRESERVATIVE COMPOSITIONS AND METHODS” (REGENTS OF THE UNIVERSITY OF MINNESOTA, priority 2015, published 2022).

In series [1] the test system is Jurkat cells. The experiment in a line: Raman microscopy cell penetration study of cryoprotectants. The series is classed as cell-based. The settings on record: for location of cryoprotectant in Raman contrast image: Jurkat cells frozen in either glycerol or trehalose, FIG. 12; for Penetration: Raman microscopy, at room temperature and at freezing temperatures. As to the method: Raman microscopy data provides an indication of the location of action of each cryopreservative. The images in FIG. 12 show Jurkat cells frozen in either glycerol (penetrating) or trehalose (non-penetrating).
These experiments were performed for most of the components described in the sections above both at room temperature and at freezing temperatures to assess whether penetration was temperature dependent.
Confocal Raman Microspectroscopy (CRM) measurements are conducted using Witec Confocal Raman Microscope System Alpha 300R (WITec, Wissenschaftliche Instrumente und Technologie GmbH, Ulm, Germany) with UHTS300 spectrometer and DV401 CCD detector. A wavelength of 532 nm Nd:YAG laser and 10 mW of power is used as excitation source. The laser is transferred to the microscopy in a singer fiber. A 100× air objective (NA 0.90; Nikon Instruments, Melville, N.Y.) is used for focusing the 532 nm excitation laser to the sample. Data collection and analysis are performed by Windows-based WitecControl_1.38 software.

Series [2] concerns MSCs. The experiment in a line: High throughput factorial screening with Linear Mixed Effects statistical analysis of recovery. In kind it is cell-based, human. The settings on record: for correlation with recovery: statistical analysis. The protocol: (§1) In another evaluation, cells were combined with factorial combinations of the components listed in Table 5, using one component from each category. Plates including cells and solutions were frozen at cooling rates of 1′C/min, 3′C/min, 5′C/min, or 10′C/min.
(§2) Recovery was calculated by dividing the number of live cells post thaw—calculated using a control curve correlating calcein-acetoxymethyl (AM) fluorescence to cell count—by the number of live cells seeded pre-freeze (AO/PI counts taken prior to freezing). Recovery was normalized by dividing by the DMSO recovery on each plate, then multiplying by a standard DMSO recovery for each cooling rate. This normalized recovery was used to compare samples between different plates and different cooling rates.
(§3) Statistical analysis of the data was performed using a Linear Effects Model. The model associated with best fit was determined using Bayesian Information Criteria. […] The ten best combinations for Jurkats are summarized in Table 6 below, while the eight best combinations for MSCs are summarized in Table 7.
To assess the importance of the four explanatory variables of interest (Sugar, Rate, Additive and Alcohol), without neglecting the variation between each batch and between each plate within the batches, we sought to find the best Linear Mixed Effects (LME) model. With yi the i'th outcome of the response, Xi the corresponding values of the covariates, the LME model is defined as
To select the most fitting model, we performed backward elimination based on the Bayesian Information Criterion (BIC) starting with a model that includes all variables and second order interactions. Furthermore, we included two random variables, one to catch the effect of the batch, and one to catch the effect of each plate within the batch—i.e., the full model is: […]

Series [3] relates to Jurkat cells. The experiment in a line: 96-well plate freezing, post-thaw scaled raw recovery (calcein-AM/PI). The settings on record: 150, 300, 600 mM total sugar; FIG. 8. The series is classed as cell-based. As to the method: The first phase of this study involved using the DE algorithm to develop a three-component cryopreservation solution used at a single cooling rate (1° C./min). Three components (trehalose, glycerol, and ectoine (TGE)) were selected as components of the exemplary freezing medium used for preservation of Jurkat cells, a hematopoietic model cell type, based on pre-screening of multiple non-DMSO components. For this single cooling rate study, the DE algorithm was programmed to output 18 vector solutions per generation with a weight=0.85 and a crossover=1. Jurkat cells cryopreserved in 10% DMSO at a cooling rate of 1° C./min were used as a control.
Cooling rate influences cell survival, and the preferred cooling rate for a given application can depend, at least in part, on the composition of the freezing medium and the cell type being frozen. […] To assess both cooling rate and the composition of the solution, the DE algorithm was programmed to output 27 vector solutions per generation with weight=0.85 and a crossover=1. Solutions were separated into categories based on their DE algorithm defined cooling rate, and were frozen in batches at a cooling rate of […], 0.5° C./min, 1° C./min, 3° C./min, 5° C./min, or 10° C./min. Results were normalized and scaled raw recovery is reported, allowing results from all cooling rates and all generations to be compared directly. […]
After 96 well plates were thawed, calcein-acetoxymethyl (AM)/propidium iodide was added to each well and the wells were covered from light and placed in a 37° C. incubator for 30 minutes to allow the live cells to cleave calcein-AM. The plates were then analyzed for fluorescence on a plate reader. Raw fluorescence values were used to calculate the number of live and dead cells present in each well by correlating to a control curve of unfrozen cells. The live cell recovery was calculated by dividing the number of live cells present in thawed samples (calcein-AM plate reader fluorescence) by the number of live cells seeded pre-freeze (AO/PI counts). […]

The subject of series [4] is Jurkat cells. The experiment in a line: High throughput factorial screening with Linear Mixed Effects statistical analysis of recovery. The settings on record: for correlation with recovery: statistical analysis, data not shown. In kind it is cell-based. As to the method:
as §1, §2, §3
High throughput factorial screening experiments were performed on a Biomek Beckman FX 96 liquid handling robot. Briefly, 12.5 μl of an array of additives were transferred to nine 96-well plates containing 12.5 μl of different sugar alcohols. Cells (25 μl) diluted in either a sugar (in a solution of NORMOSOL-R; Hospira, Inc., Lake Forest, L) or a NORMOSOL-R blank solution were transferred to these nine plates to give a final volume of 50 μl in each well. Cells suspended in […] in media were also included as a row of each plate to serve as normalization wells for plate-to-plate comparison.
When all plate volume transfers were complete, silicone plate covers were used to seal each plate, and plates were transferred to a controlled rate freezer (Kryo 10 Series III, Planer PLC, Middlesex, United Kingdom) and frozen at cooling rates ranging from 1° C./min to 10° C./min. The concentrations of components present in solution are listed in Table 11, and were selected based on values described in literature or solubility limits. Component concentrations were 0 if not listed in a solution.
Plate samples were also assessed for viability using fluorescence. Briefly, a solution of calcein-AM/propidium iodide was prepared and a volume of 50 μl was added to each sample well of experimental 96-well plates, producing a 1:1 dilution. Plates were protected from light and placed in an incubator for 30 minutes to allow for calcein-AM digestion. A fluorescent plate reader (Synergy HT, BioTek Instruments, Inc., Winooski, Vt.) was used to determine the fluorescence in each well, which was correlated to live and dead cell counts using a control curve.
Viability was calculated for all samples by dividing the number of live cells by the number of total cells. Recovery was calculated directly by dividing the number of live cells post thaw by the number of live cells pre-freeze. Recovery for 96-well plate samples was further normalized; each experimental sample recovery was divided by the DMSO recovery on the same plate, and then multiplied by the standard DMSO recovery for the cooling rate of each experiment.
To assess the importance of the four explanatory variables of interest (Sugar, Rate, Additive and Alcohol), without neglecting the variation between each batch and between each plate within the batches, we sought to find the best Linear Mixed Effects (LME) model. […]

Series [5] deals with lysozyme (Gallus gallus, UniProt P00698). The experiment in a line: Differential scanning calorimetry, denaturation temperature of lysozyme in osmolyte solution. The series is classed as physicochemical. The settings on record: 1 mg/ml lysozyme in 20 mM HEPES buffer; single osmolytes 600 mM; heated at 1° C./min; pH 7.3. The protocol: Lysozyme powder was dissolved into each solution reaching final concentration of 100 mg/ml and then refrigerated. Lysozyme in DPBS solution was used as control. For DSC measurements, experiment solution was made by dissolving osmolyte into 20 mM HEPES buffer and the concentration of osmolyte in each solution remained same as in DPBS solution. Lysozyme powder was dissolved into each solution reaching final concentration of 1 mg/ml and kept refrigerated. Lysozyme in HEPES buffer was used as control. The pH of solutions was 7.3 measured by Beckman 350 meter. Differential scanning calorimetry was performed on a differential scanning calorimeter (Q1000, TA Instruments, New Castle, Del.). Osmolyte solutions containing lysozyme were heated in order to determine the denaturation temperature of lysozyme. Experimental solutions were heated from room temperature to 90° C. at 1° C./min. Specific heat, Cp, was calculated from the heat flow data assuming Cp as a function of temperature were analyzed using OriginPro software (OriginLab Corp., Northampton, Mass.) to subtract curve baseline. The midpoint temperature, Tm, was obtained as the temperature corresponding to the maximum specific heat value from the baseline and the denaturation temperature was assumed to be Tm^32.
A general note: Differential scanning calorimetry records heat flow against a reference as temperature is scanned.

Where [6] appears, read: statistical analysis of sugar and cooling rate.

Each structure is given as a SMILES string.

Chain of lysozyme (P00698 19-147): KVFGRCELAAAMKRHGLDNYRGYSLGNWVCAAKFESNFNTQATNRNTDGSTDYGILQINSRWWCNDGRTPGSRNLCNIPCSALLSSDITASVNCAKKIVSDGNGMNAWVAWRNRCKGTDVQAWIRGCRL

As for `OCC(O)CO` [Glycerol], in series [1], the “location of cryoprotectant in Raman contrast image” value is “present both inside the cell and in the super cooled liquid surrounding the cell”; the Penetration result is “Yes”. For the same compound, the correlation with recovery entry in series [2] is on record as “positively correlated”.

Turning to `O=C(CO)[C@@H](O)[C@H](O)[C@H](O)CO` [Fructose], in series [1], the Penetration result is “Yes”. With `OC[C@@H](O)[C@@H](O)[C@H](O)[C@H](O)CO` [Mannitol], the Penetration entry in series [1] is on record as “Yes”.

`OC[C@H]1O[C@H](O[C@H]2O[C@H](CO)[C@@H](O)[C@H](O)[C@H]2O)[C@H](O)[C@@H](O)[C@@H]1O` [Trehalose]: the “recovery of Jurkat cells, sugar synergy study” value in series [3] was “outperformed monosaccharides”. In series [1], the “location of cryoprotectant in Raman contrast image” value is “excluded from the cell”. For the same compound, the Penetration result in series [1] is recorded as “Semi*”. The “cooling rate at which cells performed better with the sugar” value in series [4] (setting [6]) is 5° C./min; in series [2] (setting [6]), 10° C./min. With `OC[C@@H](O)[C@@H](O)[C@@H](O)CO` [ribitol], the correlation with recovery entry in series [4] and in series [2] was “negatively correlated” in each case. For `OC[C@@H](O)[C@@H](O)CO` [erythritol], the correlation with recovery entry in series [4] and in series [2] was “negatively correlated” each time. Take `CC(C)[C@H](N)C(=O)O` [Valine]: the Penetration entry in series [1] is listed as “Yes”. Moreover, in series [2], the correlation with recovery result is reported as “negatively correlated”.

With `OC[C@@H](O)[C@@H](O)[C@H](O)[C@@H](O)CO` [Sorbitol], the Penetration entry in series [1] is reported as “Yes”. Further, the “Denaturation temperature Tm of lysozyme” value in series [5] was found to be 83.1 °C. Moreover, in series [2], the correlation with recovery result is recorded as “positively correlated”. For `O=C(O)[C@@H]1CCCN1` [Proline], in series [1], the Penetration result was “Yes”. Besides, the correlation with recovery entry in series [4] and in series [2] was “negatively correlated” each time. Turning to `O[C@H]1[C@H](O)[C@@H](O)[C@H](O)[C@@H](O)[C@H]1O` [Inositol], the Penetration entry in series [1] is given as “Yes”. The same measure, in the same setting: under `C[C@H](N)C(=O)O` [Alanine] stands “Yes”; under `OCCO` [Ethylene glycol], “Yes”.

With `CC1=NCC[C@@H](C(=O)O)N1` [Ectoine], the Penetration result in series [1] is given as “Yes”. For the same compound, the “Denaturation temperature Tm of lysozyme” value in series [5] worked out at 79.6 °C.

Turning to `NCCS(=O)(=O)O` [Taurine], in series [1], the Penetration result is “Yes”.

On to `OC[C@@H](O)[C@H](O)[C@@H](O)CO` [Xylitol], for which the Penetration result in series [1] is on record as “Yes”.
